The results in this text go back to patent US20260000496A1, “MATERIALS AND METHODS FOR DRUG-INDUCED GINGIVAL OVERGROWTH” (Optimed Technology, Inc., priority 2019, published 2026).

One assay deals with NF-κB (p-P65). The experiment in a line: Western blot of phospho-p65 (NF-κB) in oral keratinocytes. The class given is cell-based, human. The method, then: (§1) Cell Culture. Normal human oral keratinocytes (NOKSI) and fibroblast (HOF) cells were maintained in Dulbecco […] Eagle's medium (Sigma-Aldrich, St. Louis, MO, USA) supplemented with 10% fetal bovine serum (Atlas Bio-logicals, Fort Collins, CO, USA) and 100 units/mL penicillin and 100 μg/mL streptomycin (LifeTechnologies, Carlsbad, CA, USA). Cells were grown in incubator at 37° C. in a humidified chamber with 5% CO2.
Drugs treatment in cell culture. The cells were treated alone or with different combination of lipopolysaccharide, cyclosporine, phenytoin, and folic acid. All of them were purchased from Sigma-Aldrich (St. Louis, MO, USA). Each of them were used from 0 μg/ml to 40 μg/ml and the optimum concentration were found 10 μg/ml.
Western blot analysis. Cells were seeded in 60 mm plates with a density of 5×10^5 cells per plate and washed briefly with Dulbecco's phosphate-buffered saline (Gibco, Waltham, MA, USA). Whole cell lysates were prepared using RIPA lysis buffer containing protease inhibitor cocktail (Sigma-Aldrich). Total protein concentration was determined using the BCA reagent (Pierce, Waltham, MA, USA). 20 μg of total protein were resolved on sodium dodecyl sulfate-polyacrylamide gel electrophoresis and transferred to polyvinylidenedifluoride membrane and immunoblotted. The blots were incubated for 1 h in 1% bovine serum albumin (BSA) (Sigma-Aldrich) to block the non-specific bindings followed by over-night incubation in primary antibodies (MyD88 and pP65 from Cell Signaling Technology, and human LITAF ThermoFisher Sigma) at 4° C. on shaker. Next day, blots were washed for three times (10 min each) in Tris-buffered saline containing 1% Tween20 (TBST) followed by incubation with secondary antibody (Goat anti-rabbit IgG HRP) with 1:10,000 dilution for 1 h. Following washes, bands were visualized using gel documentation Imaging Systems (BioRad). The band intensities were quantified using software ImageJ (NIH, USA) and relative protein levels were normalized by β-actin (Cell Signaling). […]
For orientation: In western blotting, separated proteins are transferred to a membrane and probed.

Assay [1] relates to drug-induced gingival overgrowth (DIGO). The experiment in a line: Mice study #2: preventive and active treatment of DIGO, gingival overgrowth. Type of assay: in vivo, C57BL/6 mice. How it is done:
Using the C57BL/6, the DIGO were induced in 33 male mice for 14 days in an anaesthetized condition as described above. […] In the prevention group, folic acid (10 μg/ml) was included in the drinking water from the time of ligature placement until end of the study (14 days). […] In the combined prevention and treatment group, both modes of folic acid treatments had provided including PO and local gel application as described above. Mice study #2: Validation study for preventive and active treatment for DIGO. […] One set of these mice were used as a control disease group (FIG. 23A) while the other group was treated with folic acid (gel and in drinking water) (FIG. 23B). In the prevention and treatment group, folic acid (10 μg/ml) (Sigma-Aldrich, St. Louis MO) was included in the drinking water from the time of suture placement until end of the study (14 days). Additionally, gel applications were repeated daily until the end of the study (14 days). The four groups in this study were: • 1. Control group (n=2): no interventions were performed • 2. […] 2D planimetry with stereomicroscopy. […] 3D Digital Imaging and Volumetric Analysis. A 3Shape TRIOS® intraoral digital scanner was used to scan all of the dissected tissue and create a 3D STL (STereoLithography) file from each scan. Autodesk […]® (Autodesk 23 Inc., CA, USA) was used to overlay each individual scan on top of one another, keeping each of the distinct mice studies separately. Anatomical landmarks of the mandibular incisors, interdental papilla, and molars were used to make sure scans were accurately overlaid. Autodesk […]® was then used to selectively remove the mandibular incisors from each digital scan. The scans were all saved and imported into Autodesk Netfabb® (Autodesk Inc., CA, USA) where plane cuts were used to simultaneously crop all scans to include only the essential parts of the gingival tissue that would indicate an increase or decrease in growth. The cropped scans were saved and imported into open source software platform 3DSlicer 4.8, where they were volumetrically analyzed using the “Volumes” module. The quantified volume values were statistically analyzed in GraphPad Prism® 7 (GraphPad Software Inc., CA, USA).

In assay [2] the test system is TGF-β secreted by HOF cells. Nature of the assay: TGF-β ELISA in Human Oral Fibroblast cells. The class given is cell-based. The settings on record: HOF treated with conditioned media from Oral Keratinocytes. How it is done:
as §1
Enzyme linked immunosorbent assay (ELISA). ELISA was conducted with a mouse TNF-α ELISA Kit (PeproTech, USA) and TGF-β Emax ImmunoAssay System (Promega USA) to detect the TNF-α and TGF-β respectively. After normalization of the total cells or tissue protein lysates, 20 μg protein of each sample was used for the detection of TNF-α or TGF-β. ELISA was performed according to the manufacturers' instructions. For TNF-α, 100 ng/100 μl of capture antibody was added to each well of 96 well assay plate and incubated for overnight at room temperature. Blocking buffer of 200 μl per well were added to each well and incubated for 1 hour at room temperature. […] Optical absorbing values were read at 405 and 450 nm and corrected by 650 nm. […] TMB One Solution was added for 15 minutes and the reaction were stopped using 100 μl of 1N hydrochloric acid and the absorbance at 450 nm were recorded on a plate reader. Data were analyzed using excel software. […]
On the technique in general: An ELISA detects its analyte on a solid surface through an enzyme-linked reagent.

Assay [3] concerns drug-induced gingival overgrowth (DIGO). The experiment in a line: Mice study #1: pilot DIGO model (suture + cyclosporine), gingival overgrowth. Type of assay: in vivo, BALB/c mice.
Text: Animal Study. […] Therefore, we developed a novel in-vivo anterior ligature model to develop DIGO. We examined two strains of mice, BALB/c and C57BL/6 were used. Sterile ligature (5-0 Silk thread) were placed around the lower central incisors on both sides in mice for 14 days at anaesthetized conditions using ketamine and xylazine. Mice were daily checked for placement of suture. […] The vehicle used to dissolve the drug was 10% ethanol and 10% polyethyleneglycol castor oil (Sigma-Aldrich, St. Louis MO) in sterilized distilled water to a volume of 100%. All mice were scarified at day 14. Euthanasia was performed using carbon dioxide followed by cervical dislocation.
In the combined prevention and treatment group, both modes of folic acid treatments were provided including PO and local gel application. […]
A 3Shape TRIOS® intraoral digital scanner was used to scan all of the dissected tissue and create a 3D STL (STereoLithography) file from each scan. […] The cropped scans were saved and imported into open source software platform 3DSlicer 4.8, where they were volumetrically analyzed using the “Volumes” module. The quantified volume values were statistically analyzed in GraphPad Prism® 7 (GraphPad Software Inc., CA, USA).

Consider `Nc1nc2ncc(CNc3ccc(C(=O)N[C@@H](CCC(=O)O)C(=O)O)cc3)nc2c(=O)[nH]1` [folic acid], for which the p-P65 protein level result in the assay on NF-κB (p-P65) (LPS, CSA, FA each 10 μg/ml, 24 hours) is reported as “inhibits CSA-induced expression”. For the same compound, the “amount of phospho-p65 (p-P65) protein” value in the assay with NF-κB (p-P65) (LPS, Phe, FA each 10 μg/ml, 24 hours) is “reduces phosphorylation of NF-κB (p-P65)”. For the same compound, the “NF-κB by western blot” value with NF-κB (p-P65) (normal oral keratinocyte cells, FIG. 35) is “downregulation”. Moreover, the “gingival overgrowth, 2D planimetry with stereomicroscopy” value in assay [1] (active treatment after 1 week of disease) was “even further reduce these gingival overgrowths”; in assay [1] (preventive treatment), “all mice appear to respond”. Besides, the “gingival overgrowth, clinical images” value in assay [1] (active treatment: DIGO 1 week, sutures removed and cyclosporine stopped, then folic acid p.o. & local) is “effectively reduce gingival overgrowths”; in assay [1] (preventive treatment, folic acid p.o. & local, 14 days) it was “prominently reduced gingival overgrowth”. The “mean gingival volume, 3D morphometric analysis” value in assay [1] (folic acid group, day 14, n=5, disease group 23.17±1.134 mm^3, p<0.005) is reported as ~16.19±0.9224 mm^3. Besides, the “overlaid 3D volumes, control vs folic acid treated” value in assay [1] (representative samples, day 14, some increase on lingual surfaces) is reported as “little difference”. Also, in assay [2], the “amount of TGF-β secreted by HOF cells” value is “reduce TGF-β expression”. Also, the “gingival overgrowth, 3D volumetric analysis” value in assay [3] (prevention sample vs disease sample, overlaid scans) is “reduced gingival overgrowth”. The “gingival swelling and inflammation, clinical images” value in assay [3] (prevention: folic acid p.o. (10 μg/ml drinking water) & local gel, apparent at day 8, vs disease group) is “less swelling and inflammation”.
